From US20070179121A1, “Method of treating pediatric patients with corticosteroids” (priority 2006, published 2007)

Tested on: HPA-axis
Assay: HPA-axis suppression: serum cortisol before and 30 minutes after intravenous cosyntropin stimulation, pediatric atopic dermatitis patients
Type: in vivo, human (pediatric patients)
Conditions: for Not suppressed: percent in brackets
Description: At the baseline visit, physical examinations were performed, including measurements of height, weight, and vital signs, and female subjects of childbearing potential underwent a urine pregnancy test (UPT). Patients with any significant disease of the hepatic, renal, endocrine, musculoskeletal, or nervous system were excluded. At Screening/Baseline, each qualified patient was assessed for a normally functioning HPA axis. Male or female patients with clinically diagnosed atopic dermatitis, involving ≧20% of the total body surface area (BSA), were randomized to receive either qd (once a day) or bid (twice a day) treatment in 4 sequential cohorts. The “rule of nines” method was used in calculating affected BSA.
Enrollment in the 4 cohorts was as follows: Cohort 1-33 patients, 12 to <18 years of age; Cohort 2-32 patients, 6 to <12 years of age; Cohort 3-30 patients, 2 to […] Cohort 4-31 infants, 3 months to <2 years of age.
Enrollment into each cohort began only after evaluation of the preceding cohort in order to minimize the risk of systemic toxicity to the study subjects. Four observations of HPA-axis suppression in a single treatment group per cohort were considered as evidence of a clinically significant risk.
Patients who met the inclusion/exclusion criteria were randomized to receive topical fluocinonide either qd or bid. Patients/guardians were instructed to apply a thin layer of the study product to all treatable areas once or twice daily for 14 days. If the areas to be treated were hairy, patients/guardians were instructed to part the hair to allow direct contact between the study product and the lesion. Patients/guardians were also instructed not to apply study product to lesions of the face, groin, perianal area, and axillae. At the end of Weeks 1, 2, and 4, patients returned to the study site in order for the investigator to perform designated evaluations, review treatment compliance and concomitant therapy, and to collect information regarding adverse events.
The potential of fluocinonide to suppress the HPA-axis was assessed by determining the rate of incidence of suppression, when suppression was defined as a serum cortisol level ≦18 μg/dL, 30 minutes after intravenous cosyntropin stimulation. For a subject to be evaluable for HPA-axis suppression, the subject must have received at least 2 full weeks of fluocinonide treatment prior to the cosyntropin challenge. Pre-and post-cosyntropin-stimulation blood samples were obtained between 7:30 and 8:30 AM to account for diurnal variation in cortisol levels, at the Baseline and Week 2 visits, as directed in the Cortrosyn® package insert. Cortrosyn® is a drug that stimulates the adrenal gland. […] The dose and administration of cosyntropin followed the labeling of the product. Specifically, the dose for subjects 3 to 17 years of age was 0.25 mg, and the dose for subjects 3 months to 2 years old was 0.125 mg. At the end of the 14-day treatment period, any subject with a post-stimulation cortisol level ≦18 μg/dL was re-tested at Week 4 and once every 4 weeks thereafter until the post-stimulation levels were within normal limits.
Mean post-stimulation cortisol levels measured at Baseline and at Week 2 were compared using a paired t test.

[1] = End of Week 2, Cohort 1 (12-<18 years), bid
[2] = End of Week 2, Cohort 1 (12-<18 years), qd
[3] = End of Week 2, Cohort 2 (6-<12 years), bid
[4] = End of Week 2, Cohort 2 (6-<12 years), qd
[5] = End of Week 2, Cohort 3 (2-<6 years), bid
[6] = End of Week 2, Cohort 3 (2-<6 years), qd
[7] = End of Week 2, Cohort 4 (3 months to <2 year), bid
[8] = End of Week 2, Cohort 4 (3 months to <2 year), qd
[9] = Screening, Cohort 1 (12-<18 years), bid
[10] = Screening, Cohort 1 (12-<18 years), qd
[11] = Screening, Cohort 2 (6-<12 years), bid
[12] = Screening, Cohort 2 (6-<12 years), qd
[13] = Screening, Cohort 3 (2-<6 years), bid
[14] = Screening, Cohort 3 (2-<6 years), qd
[15] = Screening, Cohort 4 (3 months to <2 year), bid
[16] = Screening, Cohort 4 (3 months to <2 year), qd
[17] = patient of Cohort 3 bid, Week 2 (samples suspected reversed)

`CC(=O)OCC(=O)[C@@]12OC(C)(C)O[C@@H]1C[C@H]1[C@@H]3C[C@H](F)C4=CC(=O)C=C[C@]4(C)[C@@]3(F)[C@@H](O)C[C@@]12C` [Fluocinonide, pregna-1,4-diene-3,20-dione,21-(acetyloxy)-6,9-difluoro-11-hydroxy-16, 17-[(1-methylethylidene)bis(oxy)]-,(6α., 11β,16α)-] was tested, and the “Patients who met the criterion for HPA-axis suppression” value (from here on “Patients who met the criterion”) (Cohort 1, bid, 1 of 15) was 6.7%, the “Patients who met the criterion” value (Cohort 2, bid, 2 of 16) was 12.5% and the “Patients who met the criterion” value (Cohort 3, bid, Week 2, 1 of 15, samples suspected reversed, not counted as suppression) was 6.7%. The “Subjects who experienced HPA-axis suppression” value (Cohort 4) was “None”, the “Cortisol increase in levels, Mean ± SD” value [1] was 8.6 ± 4.7 µg/dL and the “Cortisol increase in levels, Range” value [1] was 1.2 to 17.0 µg/dL. The “Cortisol pre-stimulation level, Mean ± SD” value [1] was 17.2 ± 8.3 µg/dL, the “Cortisol pre-stimulation level, Range” value [1] was 7.1 to 34.2 µg/dL and the Not suppressed [1] was 14 (93.3) N. For the same compound, the “Cortisol increase in levels, Mean ± SD” value [2] was 9.3 ± 5.1 µg/dL, the “Cortisol increase in levels, Range” value [2] was 3.5 to 22.2 µg/dL and the “Cortisol pre-stimulation level, Mean ± SD” value [2] was 17.6 ± 7.6 µg/dL. The “Cortisol pre-stimulation level, Range” value [2] was 1.2 to 32.9 µg/dL, the Not suppressed [2] was 15 (100) N and the “Cortisol increase in levels, Mean ± SD” value [3] was 11.5 ± 5.2 µg/dL. For the same compound, the “Cortisol increase in levels, Range” value [3] was -3.5 to 20.3 µg/dL, the “Cortisol pre-stimulation level, Mean ± SD” value [3] was 12.3 ± 4.9 µg/dL and the Not suppressed [3] was 14 (87.5) N. The “Cortisol increase in levels, Mean ± SD” value [4] was 11.0 ± 4.8 µg/dL, the “Cortisol increase in levels, Range” value [4] was -2.3 to 17.8 µg/dL and the “Cortisol pre-stimulation level, Mean ± SD” value [4] was 13.7 ± 5.6 µg/dL. For the same compound, the “Cortisol pre-stimulation level, Range” value [4] was 6.9 to 29.3 µg/dL, the “Cortisol post-stimulation level, Mean ± SD” value (End of Week 2, Cohort 2 (6-<12 years), qd, P = 0.015 vs screening) was 24.7 ± 3.0 µg/dL and the “Cortisol post-stimulation level, Mean ± SD” value (End of Week 2, Cohort 2 (6-<12 years), qd, P = 0.015 vs screening, listed as fluocinonide) was 24.7 µg/dL. For the same compound, the Not suppressed [4] was 15 (100) N, the “Cortisol increase in levels, Mean ± SD” value [5] was 11.0 ± 10.4 µg/dL and the “Cortisol increase in levels, Range” value [5] was -19 to 29.1 µg/dL. The “Cortisol pre-stimulation level, Mean ± SD” value [5] was 15.0 ± 5.9 µg/dL, the Not suppressed [5] was 15 (100) N and the “Cortisol increase in levels, Mean ± SD” value [6] was 12.7 ± 4.9 µg/dL. For the same compound, the “Cortisol increase in levels, Range” value [6] was 3.1 to 22.0 µg/dL, the “Cortisol pre-stimulation level, Mean ± SD” value [6] was 15.4 ± 7.0 µg/dL and the Not suppressed [6] was 15 (100) N. The “Cortisol increase in levels, Mean ± SD” value [7] was 16.5 ± 6.6 µg/dL, the “Cortisol increase in levels, Range” value [7] was 7.0 to 29.7 µg/dL and the “Cortisol pre-stimulation level, Mean ± SD” value [7] was 13.0 ± 4.6 µg/dL. For the same compound, the Not suppressed [7] was 15 (100) N, the “Cortisol increase in levels, Mean ± SD” value [8] was 19.9 ± 7.1 µg/dL and the “Cortisol increase in levels, Range” value [8] was 6.4 to 29.9 µg/dL. The “Cortisol pre-stimulation level, Mean ± SD” value [8] was 10.4 ± 3.2 µg/dL, the Not suppressed [8] was 15 (100) N and the “Cortisol increase in levels, Mean ± SD” value [9] was 11.1 ± 3.7 µg/dL. For the same compound, the “Cortisol increase in levels, Range” value [9] was 4.3 to 17.4 µg/dL, the “Cortisol post-stimulation level, Mean ± SD” value [9] was 26.8 ± 8.0 µg/dL and the “Cortisol post-stimulation level, Range” value [9] was 18.3 to 50.4 µg/dL. The “Cortisol pre-stimulation level, Mean ± SD” value [9] was 15.7 ± 10.3 µg/dL, the “Cortisol pre-stimulation level, Range” value [9] was 0.9 to 42.7 µg/dL and the “Cortisol increase in levels, Mean ± SD” value [10] was 9.3 ± 5.2 µg/dL. The “Cortisol increase in levels, Range” value [10] was -1.2 to 22.1 µg/dL, the “Cortisol post-stimulation level, Mean ± SD” value [10] was 26.4 ± 3.7 µg/dL and the “Cortisol post-stimulation level, Range” value [10] was 18.2 to 31.3 µg/dL. The “Cortisol pre-stimulation level, Mean ± SD” value [10] was 17.2 ± 6.6 µg/dL, the “Cortisol pre-stimulation level, Range” value [10] was 2.0 to 26.1 µg/dL and the “Cortisol increase in levels, Mean ± SD” value [11] was 12.3 ± 3.7 µg/dL. For the same compound, the “Cortisol increase in levels, Range” value [11] was 3.8 to 17.8 µg/dL, the “Cortisol post-stimulation level, Mean ± SD” value [11] was 24.9 ± 3.9 µg/dL and the “Cortisol post-stimulation level, Range” value [11] was 19.4 to 32.1 µg/dL. The “Cortisol pre-stimulation level, Mean ± SD” value [11] was 12.5 ± 4.5 µg/dL, the “Cortisol pre-stimulation level, Range” value [11] was 6.4 ± 22.2 µg/dL and the “Cortisol increase in levels, Mean ± SD” value [12] was 14.0 ± 6.1 µg/dL. The “Cortisol increase in levels, Range” value [12] was 3.0 to 22.6 µg/dL, the “Cortisol post-stimulation level, Mean ± SD” value [12] was 28.0 ± 4.3 µg/dL and the “Cortisol post-stimulation level, Range” value [12] was 20.9 to 36.2 µg/dL. The “Cortisol pre-stimulation level, Mean ± SD” value [12] was 14.0 ± 5.0 µg/dL, the “Cortisol pre-stimulation level, Range” value [12] was 6.6 to 25.1 µg/dL and the “Cortisol post-stimulation level, Mean ± SD” value (Screening, Cohort 2 (6-<12 years), qd, listed as fluocinonide) was 28.0 µg/dL. The “Cortisol increase in levels, Mean ± SD” value [13] was 15.6 ± 7.0 µg/dL, the “Cortisol increase in levels, Range” value [13] was 1.8 to 30.0 µg/dL and the “Cortisol post-stimulation level, Mean ± SD” value [13] was 29.9 ± 6.1 µg/dL. The “Cortisol post-stimulation level, Range” value [13] was 20.1 to 40.0 µg/dL, the “Cortisol pre-stimulation level, Mean ± SD” value [13] was 14.4 ± 5.6 µg/dL and the “Cortisol pre-stimulation level, Range” value [13] was 6.1 to 23.4 µg/dL. The “Cortisol increase in levels, Mean ± SD” value [14] was 17.4 ± 3.1 µg/dL, the “Cortisol increase in levels, Range” value [14] was 11.2 to 23.0 µg/dL and the “Cortisol post-stimulation level, Mean ± SD” value [14] was 29.0 ± 3.8 µg/dL. The “Cortisol post-stimulation level, Range” value [14] was 22.8 to 37.0 µg/dL, the “Cortisol pre-stimulation level, Mean ± SD” value [14] was 11.6 ± 3.6 µg/dL and the “Cortisol pre-stimulation level, Range” value [14] was 7.3 to 19.8 µg/dL. The “Cortisol increase in levels, Mean ± SD” value [15] was 17.9 ± 4.7 µg/dL, the “Cortisol increase in levels, Range” value [15] was 11.4 to 25.0 µg/dL and the “Cortisol post-stimulation level, Mean ± SD” value [15] was 29.2 ± 6.1 µg/dL. The “Cortisol post-stimulation level, Range” value [15] was 20.5 to 38.8 µg/dL, the “Cortisol pre-stimulation level, Mean ± SD” value [15] was 11.3 ± 4.9 µg/dL and the “Cortisol pre-stimulation level, Range” value [15] was 6.0 to 20.8 µg/dL. For the same compound, the “Cortisol increase in levels, Mean ± SD” value [16] was 16.5 ± 4.7 µg/dL, the “Cortisol increase in levels, Range” value [16] was 6.1 to 23.0 µg/dL and the “Cortisol post-stimulation level, Mean ± SD” value [16] was 28.3 ± 5.1 µg/dL. For the same compound, the “Cortisol post-stimulation level, Range” value [16] was 20.7 to 36.2 µg/dL, the “Cortisol pre-stimulation level, Mean ± SD” value [16] was 11.8 ± 4.3 µg/dL and the “Cortisol pre-stimulation level, Range” value [16] was 4.7 to 19.6 µg/dL. For the same compound, the “Suppression of the HPA-axis” value (administered once daily, patients 3 months to <18 years of age) was “does not result in suppression of the HPA-axis”, the HPA-axis suppression (administered topically once or twice daily, pediatric patients with atopic dermatitis) was “does not result in any significant level of HPA-axis suppression” and the “Suppression of the HPA-axis” value (administered twice daily) was “low incidence of suppression of the HPA-axis”. For the same compound, the “Post-stimulation serum cortisol level, single patient” value (“Post-stimulation serum cortisol level” for short) (first suppressed patient of Cohort 2 bid, Screening) was 32.1 µg/dL, the “Post-stimulation serum cortisol level” value (first suppressed patient of Cohort 2 bid, Week 2) was 17.2 µg/dL and the “Post-stimulation serum cortisol level” value (first suppressed patient of Cohort 2 bid, Week 4 (2 weeks post-treatment)) was 28.7 µg/dL. The “Post-stimulation serum cortisol level” value (patient of Cohort 3 bid, Screening) was 40.0 µg/dL, the “Post-stimulation serum cortisol level” value [17] was 9.1 µg/dL and the “Pre-stimulation serum cortisol level, single patient” value [17] was 28.0 µg/dL. The “Post-stimulation serum cortisol level” value (patient of Cohort 3 bid, Week 4) was 30.3 µg/dL, the “Post-stimulation serum cortisol level” value (second suppressed patient of Cohort 2 bid, 8 days after the end of treatment) was 22.4 µg/dL and the “Post-stimulation serum cortisol level” value (second suppressed patient of Cohort 2 bid, Screening) was 20.5 µg/dL. For the same compound, the “Post-stimulation serum cortisol level” value (second suppressed patient of Cohort 2 bid, Week 2) was 16.7 µg/dL, the “Post-stimulation serum cortisol level” value (suppressed patient of Cohort 1 bid, Week 2) was 17.6 µg/dL and the “Post-stimulation serum cortisol level” value (suppressed patient of Cohort 1 bid, Week 4 (2 weeks post-treatment)) was 18.9 µg/dL.
